According to PMC12715762, “Discovery of VU6052254: A Novel, Potent M1 Positive Allosteric Modulator” (ACS Chemical Neuroscience, 2025):
Converted amounts (≈) assume the structure as drawn. Like-named read-outs stand apart in the source and are kept apart here.

Tests used:
rat M1 = target: T1, rat M1 (Rattus norvegicus, UniProt P08482); assay: M1 PAM calcium mobilization assay (rat); type: cell-based; details: for rM1 PAM AChmax (%): rat M1, % ACh max, n = 5; for EC50: rat M1, n = 5, read-out: rM1 PAM EC50
T1 construct: expressed in transfected cells
T1 sequence (P08482 1-460): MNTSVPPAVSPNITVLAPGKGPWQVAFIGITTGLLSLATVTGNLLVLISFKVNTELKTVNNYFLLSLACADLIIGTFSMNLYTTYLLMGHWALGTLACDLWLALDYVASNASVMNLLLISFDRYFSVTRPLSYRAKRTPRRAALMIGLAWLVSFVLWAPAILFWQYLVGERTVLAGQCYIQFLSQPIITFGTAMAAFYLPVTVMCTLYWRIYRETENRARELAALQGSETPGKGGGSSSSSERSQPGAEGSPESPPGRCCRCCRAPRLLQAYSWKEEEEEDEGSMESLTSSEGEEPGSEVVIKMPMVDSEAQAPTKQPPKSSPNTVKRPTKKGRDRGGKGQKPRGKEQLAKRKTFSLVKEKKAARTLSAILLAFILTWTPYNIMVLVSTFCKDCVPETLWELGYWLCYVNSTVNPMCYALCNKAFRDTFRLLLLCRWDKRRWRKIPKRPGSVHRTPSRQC

[1] = predicted hepatic clearance, hepatic microsomes (rat); type: in vitro ADME; details: rat (r)
Experimental: (§1) After a 5 min preincubation, the reaction was initiated by the addition of NADPH (1 mM). At selected time intervals (0, 3, 7, 15, 25, and 45 min), aliquots were taken and subsequently placed into a 96-well plate containing cold acetonitrile with internal standard (50 ng/mL carbamazepine). Plates were then centrifuged at 3000 rcf (4 °C) for 10 min, and the supernatant was transferred to a separate 96-well plate and diluted 1:1 with water for LC/MS/MS analysis. The in vitro half-life ( 1/2, min, Eq. 1), intrinsic clearance (CLint, mL/min/kg, Eq. 2), and subsequent predicted hepatic clearance (CLhep, mL/min/kg, Eq. 3) was determined employing the […]
(§2) where k represents the slope from linear regression analysis of the natural log percent remaining of a test compound as a function of incubation time […]
(§3) (2) CLint = in vitroT x mg microsomes x gram liver x kg body wt ascale-up factors: of 20 (human) or 45 (rat) […]
(§4) where Qh (hepatic blood flow, mL/min/kg) is 21 (human) or 70 (rat).
(§5) LC/MS/MS Bioanalysis of Samples from Plasma Protein Binding and Intrinsic Clearance […]
(§6) Samples were analyzed on a Thermo Electron TSQ Quantum Ultra triple quad mass spectrometer (San Jose, CA) via electrospray ionization (ESI) with two Themo Electron Accella pumps (San Jose, CA), and a Leap Technologies CTC PAL autosampler (Carrboro, NC). […]

[2] = predicted hepatic clearance (dog); type: in vitro ADME; details: dog (d)
Experimental: as §1, §2, §3, §4, §5, §6

[3] = predicted hepatic clearance (cyno); type: in vitro ADME; details: cyno (c)
Experimental: as §1, §2, §3, §4, §5, §6

CYP 1A2 = CYP 1A2 (Homo sapiens, UniProt P05177); assay: CYP450 inhibition; type: in vitro ADME
Chain of CYP 1A2 (P05177 whole entry): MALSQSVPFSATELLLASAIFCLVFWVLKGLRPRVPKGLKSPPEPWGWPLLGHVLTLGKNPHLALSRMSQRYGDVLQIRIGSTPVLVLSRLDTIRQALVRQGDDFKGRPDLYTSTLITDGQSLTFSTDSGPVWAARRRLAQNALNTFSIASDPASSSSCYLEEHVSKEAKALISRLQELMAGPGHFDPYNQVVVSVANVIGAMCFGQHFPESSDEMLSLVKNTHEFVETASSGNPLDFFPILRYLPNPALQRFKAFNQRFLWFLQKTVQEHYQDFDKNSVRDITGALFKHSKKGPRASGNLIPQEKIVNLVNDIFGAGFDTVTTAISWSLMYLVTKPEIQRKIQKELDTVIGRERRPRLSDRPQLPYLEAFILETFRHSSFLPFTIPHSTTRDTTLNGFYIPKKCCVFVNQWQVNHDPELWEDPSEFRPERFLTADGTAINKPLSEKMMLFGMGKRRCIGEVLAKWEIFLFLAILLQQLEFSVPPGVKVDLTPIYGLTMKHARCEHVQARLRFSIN

[4] = kinetic / aqueous solubility; type: physicochemical; details: for solubility kinetic: aqueous medium, kinetic from dmso stock
[5] = solubility in simulated gastric fluid (FaSSGF); type: physicochemical; details: fassgf or other biorelevant
Adenosine A3 = Adenosine A3 (Homo sapiens, UniProt P0DMS8); assay: Eurofins radioligand binding
Chain of Adenosine A3 (P0DMS8 whole entry): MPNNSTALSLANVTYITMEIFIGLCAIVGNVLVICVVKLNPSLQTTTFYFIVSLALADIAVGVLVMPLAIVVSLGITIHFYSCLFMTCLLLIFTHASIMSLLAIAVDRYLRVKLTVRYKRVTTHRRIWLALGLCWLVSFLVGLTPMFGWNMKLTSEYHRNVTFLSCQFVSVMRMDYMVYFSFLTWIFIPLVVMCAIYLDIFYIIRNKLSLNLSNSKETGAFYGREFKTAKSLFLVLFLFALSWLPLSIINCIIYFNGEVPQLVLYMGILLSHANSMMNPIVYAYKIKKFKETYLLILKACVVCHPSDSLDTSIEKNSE

Adrenergic α1D = Adrenergic α1D (Homo sapiens, UniProt P25100); assay: Eurofins radioligand binding
Chain of Adrenergic α1D (P25100 whole entry): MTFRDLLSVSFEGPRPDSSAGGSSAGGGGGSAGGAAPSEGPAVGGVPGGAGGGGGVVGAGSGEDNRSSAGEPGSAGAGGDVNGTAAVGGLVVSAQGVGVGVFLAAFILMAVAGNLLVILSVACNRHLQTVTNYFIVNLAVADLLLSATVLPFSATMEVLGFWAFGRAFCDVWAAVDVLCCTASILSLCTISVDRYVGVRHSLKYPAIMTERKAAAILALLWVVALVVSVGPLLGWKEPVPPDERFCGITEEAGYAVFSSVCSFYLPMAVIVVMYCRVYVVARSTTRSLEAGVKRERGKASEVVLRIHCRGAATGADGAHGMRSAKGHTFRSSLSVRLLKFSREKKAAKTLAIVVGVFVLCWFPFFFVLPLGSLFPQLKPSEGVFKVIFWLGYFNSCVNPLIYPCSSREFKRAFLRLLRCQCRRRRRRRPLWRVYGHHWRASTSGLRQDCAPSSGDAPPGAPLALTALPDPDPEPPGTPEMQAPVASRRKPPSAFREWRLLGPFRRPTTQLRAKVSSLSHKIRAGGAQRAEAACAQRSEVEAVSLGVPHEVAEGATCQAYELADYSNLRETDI

Adrenergic α2A = target: T2, Adrenergic α2A (Homo sapiens, UniProt P08913); assay: Eurofins radioligand binding
T2 construct: purchased Eurofins (contract screen, Study TW04-0011004)
T2 sequence (P08913 whole entry): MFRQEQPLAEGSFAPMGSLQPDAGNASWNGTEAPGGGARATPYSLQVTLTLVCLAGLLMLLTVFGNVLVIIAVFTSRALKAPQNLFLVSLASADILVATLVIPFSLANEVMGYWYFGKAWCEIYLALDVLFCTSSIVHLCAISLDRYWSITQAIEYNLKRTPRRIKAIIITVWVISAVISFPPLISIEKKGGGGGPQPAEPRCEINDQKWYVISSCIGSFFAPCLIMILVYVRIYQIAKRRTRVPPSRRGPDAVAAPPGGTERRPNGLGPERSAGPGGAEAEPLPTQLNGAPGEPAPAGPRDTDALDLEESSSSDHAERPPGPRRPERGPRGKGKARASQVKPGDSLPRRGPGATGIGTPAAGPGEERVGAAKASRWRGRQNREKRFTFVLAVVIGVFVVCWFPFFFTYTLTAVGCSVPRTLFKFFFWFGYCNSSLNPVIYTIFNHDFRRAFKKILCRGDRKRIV

Dopamine D2S = Dopamine D2S (Homo sapiens, UniProt P14416); assay: Eurofins radioligand binding
Chain of Dopamine D2S (P14416 1-414 isoform P14416-2): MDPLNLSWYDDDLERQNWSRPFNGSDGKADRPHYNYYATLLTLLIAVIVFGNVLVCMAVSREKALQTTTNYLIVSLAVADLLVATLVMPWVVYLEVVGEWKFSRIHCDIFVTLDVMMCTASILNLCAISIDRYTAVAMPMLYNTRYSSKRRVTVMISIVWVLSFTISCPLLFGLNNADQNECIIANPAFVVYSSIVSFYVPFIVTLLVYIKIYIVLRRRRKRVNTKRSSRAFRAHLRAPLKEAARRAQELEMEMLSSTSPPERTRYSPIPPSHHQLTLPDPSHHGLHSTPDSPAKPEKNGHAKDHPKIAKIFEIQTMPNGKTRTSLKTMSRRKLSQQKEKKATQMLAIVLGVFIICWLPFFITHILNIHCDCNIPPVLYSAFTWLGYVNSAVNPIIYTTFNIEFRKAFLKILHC

[6] = tested on: GABAA, Flunitrazepam, Central; assay: Eurofins radioligand binding; details: Rat
Histamine H1 = Histamine H1 (Homo sapiens, UniProt P35367); assay: Eurofins radioligand binding
Chain of Histamine H1 (P35367 whole entry): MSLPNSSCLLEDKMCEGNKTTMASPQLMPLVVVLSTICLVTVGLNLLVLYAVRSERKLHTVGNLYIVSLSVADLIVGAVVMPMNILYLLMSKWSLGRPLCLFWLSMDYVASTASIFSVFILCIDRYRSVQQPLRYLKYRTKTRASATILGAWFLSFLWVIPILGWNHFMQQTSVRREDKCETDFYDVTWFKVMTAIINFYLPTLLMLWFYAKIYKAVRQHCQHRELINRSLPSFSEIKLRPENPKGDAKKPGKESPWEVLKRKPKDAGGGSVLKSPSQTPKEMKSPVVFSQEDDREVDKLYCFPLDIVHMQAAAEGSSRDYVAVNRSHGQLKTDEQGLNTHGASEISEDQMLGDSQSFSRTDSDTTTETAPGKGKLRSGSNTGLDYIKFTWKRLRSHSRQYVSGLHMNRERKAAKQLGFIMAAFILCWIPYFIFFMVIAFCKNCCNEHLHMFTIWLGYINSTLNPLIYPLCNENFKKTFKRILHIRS

[7] = target: Nicotinic Acetylcholine α3β4 (Homo sapiens, UniProt P30926+P32297); assay: Eurofins radioligand binding
Chain of Nicotinic Acetylcholine α3β4 (P32297 32-505): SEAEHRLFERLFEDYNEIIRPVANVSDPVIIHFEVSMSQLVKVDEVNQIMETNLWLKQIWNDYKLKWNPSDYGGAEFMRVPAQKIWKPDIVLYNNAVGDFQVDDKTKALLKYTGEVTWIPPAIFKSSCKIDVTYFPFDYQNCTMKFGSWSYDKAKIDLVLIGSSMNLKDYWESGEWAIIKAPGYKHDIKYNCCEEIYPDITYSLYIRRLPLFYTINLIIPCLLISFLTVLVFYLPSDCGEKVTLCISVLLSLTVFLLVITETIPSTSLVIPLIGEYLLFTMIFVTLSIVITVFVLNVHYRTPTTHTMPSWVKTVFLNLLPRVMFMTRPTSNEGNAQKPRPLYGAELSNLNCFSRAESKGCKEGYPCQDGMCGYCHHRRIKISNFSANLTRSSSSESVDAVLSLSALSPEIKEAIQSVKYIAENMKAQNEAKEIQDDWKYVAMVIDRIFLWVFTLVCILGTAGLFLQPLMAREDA
Chain of Nicotinic Acetylcholine α3β4 (P30926 22-498): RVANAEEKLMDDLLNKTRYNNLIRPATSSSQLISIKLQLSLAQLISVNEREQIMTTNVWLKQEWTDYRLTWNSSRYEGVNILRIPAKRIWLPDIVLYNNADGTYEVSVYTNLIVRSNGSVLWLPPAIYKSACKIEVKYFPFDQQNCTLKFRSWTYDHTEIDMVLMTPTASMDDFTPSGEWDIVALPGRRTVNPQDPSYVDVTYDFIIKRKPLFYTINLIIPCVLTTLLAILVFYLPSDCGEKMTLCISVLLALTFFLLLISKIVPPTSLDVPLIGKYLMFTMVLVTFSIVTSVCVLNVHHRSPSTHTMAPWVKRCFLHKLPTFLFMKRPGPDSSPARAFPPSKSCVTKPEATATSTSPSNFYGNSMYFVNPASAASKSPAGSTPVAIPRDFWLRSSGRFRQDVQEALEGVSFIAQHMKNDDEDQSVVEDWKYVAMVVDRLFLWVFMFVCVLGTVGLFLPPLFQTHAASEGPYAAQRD

[8] = target: Platelet Activating Factor (PAF) (Homo sapiens, UniProt P25105); assay: Eurofins radioligand binding
Chain of Platelet Activating Factor (PAF) (P25105 whole entry): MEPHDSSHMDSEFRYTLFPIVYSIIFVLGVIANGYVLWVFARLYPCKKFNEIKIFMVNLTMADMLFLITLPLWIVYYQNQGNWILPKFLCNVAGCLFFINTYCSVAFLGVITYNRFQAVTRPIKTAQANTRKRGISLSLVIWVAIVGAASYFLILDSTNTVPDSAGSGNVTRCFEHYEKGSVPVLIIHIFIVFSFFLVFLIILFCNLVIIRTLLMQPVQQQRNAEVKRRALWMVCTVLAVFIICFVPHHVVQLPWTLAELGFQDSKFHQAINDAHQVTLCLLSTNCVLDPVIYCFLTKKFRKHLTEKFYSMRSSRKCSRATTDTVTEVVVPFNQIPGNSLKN

Prostanoid EP4 = Prostanoid EP4 (Homo sapiens, UniProt P35408); assay: Eurofins radioligand binding
Chain of Prostanoid EP4 (P35408 whole entry): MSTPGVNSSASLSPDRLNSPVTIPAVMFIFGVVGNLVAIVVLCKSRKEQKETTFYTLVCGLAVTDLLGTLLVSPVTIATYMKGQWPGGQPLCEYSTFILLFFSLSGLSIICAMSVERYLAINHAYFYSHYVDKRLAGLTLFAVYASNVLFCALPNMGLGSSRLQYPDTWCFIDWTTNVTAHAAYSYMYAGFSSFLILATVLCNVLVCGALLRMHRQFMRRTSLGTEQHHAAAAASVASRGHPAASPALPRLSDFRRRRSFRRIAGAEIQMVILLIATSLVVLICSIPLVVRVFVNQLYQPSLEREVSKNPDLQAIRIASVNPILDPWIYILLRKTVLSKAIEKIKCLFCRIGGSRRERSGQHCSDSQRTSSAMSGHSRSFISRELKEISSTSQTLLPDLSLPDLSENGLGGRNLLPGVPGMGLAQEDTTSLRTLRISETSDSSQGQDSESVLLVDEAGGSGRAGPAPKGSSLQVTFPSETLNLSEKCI

[9] = tested on: Purinergic P2Y, Non-Selective; assay: Eurofins radioligand binding; details: Rat
[10] = pH 2.2, pH 2.2, aqueous buffer, read-out: Kinetic solubility (pH = 2.2)
[11] = pH 6.8, pH 6.8, aqueous buffer, read-out: Kinetic solubility (pH = 6.8)

Row | Compound | rM1 PAM AChmax (%) (rat M1) | EC50 (rat M1) | Predicted CLhep [1] | Predicted CLhep [2] | Predicted CLhep [3] | IC50 (CYP 1A2) | solubility kinetic [4, 10] | solubility kinetic [4, 11] | solubility [5] | further results
1 | Cn1cc2c(-c3cc(F)c(CN4Cc5ncccc5C4=O)c(F)c3)cccc2n1 [compound 1, reference compound] | 81% | 0.398 µM | 5.7 mL/min/kg | 5.5 mL/min/kg | 5.6 mL/min/kg | 14 µM | 80.1 µM (≈ 31.3 µg/mL) | 9.75 µM (≈ 3.81 µg/mL) | 36 µg/mL (≈ 92.2 µM) | aqueous solubility ([4]; result in words): low aqueous solubility
2 | Cn1cc2c(-c3cc(F)c(CN4Cc5ncccc5C4=O)c(F)c3)ccc(C(C)(C)O)c2n1 [compound 7] | 94% | 0.078 µM | 35.5 mL/min/kg | 8.0 mL/min/kg | 17.7 mL/min/kg | > 30 µM | 81.5 µM (≈ 36.6 µg/mL) | 67.8 µM (≈ 30.4 µg/mL) | 24.8 µg/mL (≈ 55.3 µM) | inhibition at 10 µM (Adenosine A3): 8%; inhibition at 10 µM (Adrenergic α1D): 11%; IC50 (Adrenergic α2A): 3.2 µM; inhibition at 10 µM (Adrenergic α2A; Adrenergic α2A, Human): 75%; inhibition at 10 µM (Dopamine D2S): -2%; % Inhibition at 10 µM [6]: 4%; inhibition at 10 µM (Histamine H1): 4%; inhibition at 10 µM [7]: 4%; inhibition at 10 µM [8]: 1%; inhibition at 10 µM (Prostanoid EP4): 21%; % Inhibition at 10 µM [9]: 21%
